Consider eight compounds from PMC7343616 (The FEBS journal, 2020).

The target of one experiment is wild-type PR. The note with it: read-out: Ki for PR, ref Park et al. 2016. Biochemistry [18]; cited from earlier work.
In experiment [1] the target is PRS5B (Human immunodeficiency virus 1, UniProt P03367, A522V/A571V/C567A/C595A/E521D/E535N/G573T/I584V/L510I/L524M/M536I/N583D/Q507K/V511I, form not given). Briefly: FRET-based enzyme kinetic inhibition assay. It is filed as biochemical, HIV-1. Particulars: read-out: Ki for PRS5B; FRET substrate, 50 mM MES pH 5.6, 37°C; mean ± SD (n=3–5).
The next experiment has as its system PR^S17. The note with it: Ki for mutant/Ki for wild-type; ref Park et al. 2016. Biochemistry [18]; cited from earlier work.
The next experiment concerns isolate with PRS5B. The note with it: ref Stanford HIV database; cited from earlier work.
Experiment [2] concerns PRS5B. The experiment can be described thus: FRET-based enzyme kinetic inhibition assay. It is filed as biochemical, HIV-1. Particulars: Ki for mutant/Ki for wild-type.

The structures appear in SMILES notation.

What is called Ki is the equilibrium dissociation constant of an inhibitor or competing ligand from its target.

For the compound `CC(C)CN(C[C@@H](O)[C@H](Cc1ccccc1)NC(=O)O[C@H]1CCOC1)S(=O)(=O)c1ccc(N)cc1` [APV, amprenavir], at wild-type PR, the Ki is 0.2 nM.
`COC(=O)N[C@H](C(=O)N[C@@H](Cc1ccccc1)[C@@H](O)CN(Cc1ccc(-c2ccccn2)cc1)NC(=O)[C@@H](NC(=O)OC)C(C)(C)C)C(C)(C)C` [ATV, atazanavir]: the Ki at PRS5B [1] was 8.4 ± 0.9 nM; on wild-type PR, 0.035 nM. Also, the “PR^S17 Ki fold change” value with PR^S17 was 2,000 fold.
Turning to `CC(C)CN(C[C@@H](O)[C@H](Cc1ccccc1)NC(=O)O[C@H]1CO[C@H]2OCC[C@H]21)S(=O)(=O)c1ccc(N)cc1` [DRV, darunavir], the Ki at wild-type PR is 0.005 nM.
On to `CC(C)(C)NC(=O)[C@@H]1CN(Cc2cccnc2)CCN1C[C@@H](O)C[C@@H](Cc1ccccc1)C(=O)N[C@H]1c2ccccc2C[C@H]1O` [IDV, indinavir], for which the Ki on wild-type PR was 0.25 nM.
For `Cc1cccc(C)c1OCC(=O)N[C@@H](Cc1ccccc1)[C@@H](O)C[C@H](Cc1ccccc1)NC(=O)[C@H](C(C)C)N1CCCNC1=O` [LPV, lopinavir], the “resistance in PhenoSense assay” value with isolate with PRS5B was “significant resistance, although not the highest level”. Moreover, the Ki at PRS5B [1] is 160 ± 10 nM; on wild-type PR, 0.02 nM. Besides, the “PRS5B Ki fold change” value in the experiment with PRS5B [2] is reported as 8,000 fold. The “PR^S17 Ki fold change” value in the experiment on PR^S17 is 3,650 fold.
Consider `Cc1c(O)cccc1C(=O)N[C@@H](CSc1ccccc1)[C@H](O)CN1C[C@H]2CCCC[C@H]2C[C@H]1C(=O)NC(C)(C)C` [NFV, nelfinavir], for which, on wild-type PR, the Ki is 0.36 nM.
In the case of `CC(C)(C)NC(=O)[C@@H]1C[C@@H]2CCCC[C@@H]2CN1C[C@@H](O)[C@H](Cc1ccccc1)NC(=O)[C@H](CC(N)=O)NC(=O)c1ccc2ccccc2n1` [SQV, saquinavir], the Ki at wild-type PR is 0.39 nM.
Consider `CCC[C@@]1(CCc2ccccc2)CC(O)=C([C@H](CC)c2cccc(NS(=O)(=O)c3ccc(C(F)(F)F)cn3)c2)C(=O)O1` [TPV, tipranavir], for which the Ki at PRS5B [1] was 8.6 ± 1.2 nM.
